This is an account of results in patent US8158785B2, “5,7-disubstituted[1.3]thiazolo [4,5-D] pyrimidin-2(3H)-amine derivatives and their use in therapy” (AstraZeneca AB, priority 2006, dated 2012).

The test addresses T1, hCX3CR1 (Homo sapiens, UniProt P49238).
T1 construct: expressed in transfected cells; host or cells: HEKS 293 (human embryonic kidney suspension) cells stably expressing chimeric G-protein Gαqi5
T1 sequence (P49238 1-355): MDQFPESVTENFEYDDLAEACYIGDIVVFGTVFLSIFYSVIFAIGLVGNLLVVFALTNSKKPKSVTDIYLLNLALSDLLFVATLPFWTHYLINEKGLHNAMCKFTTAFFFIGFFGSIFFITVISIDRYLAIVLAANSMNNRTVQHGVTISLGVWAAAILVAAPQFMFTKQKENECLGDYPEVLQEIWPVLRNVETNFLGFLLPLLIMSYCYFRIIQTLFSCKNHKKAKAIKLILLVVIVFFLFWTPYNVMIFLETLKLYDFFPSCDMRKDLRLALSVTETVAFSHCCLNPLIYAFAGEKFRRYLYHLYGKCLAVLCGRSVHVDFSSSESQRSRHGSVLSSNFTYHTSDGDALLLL
Kind of test: in vitro hCX3CR1 binding assay ([125I]-fractalkine competition binding, membranes). The conditions noted are these: competition with 10 pM [125I]-fractalkine, membranes of HEKS 293 cells expressing hCX3CR1, 25° C., 24 h. How it is done: The complete human CX3CR1 cDNA (GenBank accession number U20350) was extracted from human brain mRNA (Superscript, Life Technologies) and ligated into pCR-Blunt II TOPO vector (InVitrogen). The insert corresponding hCX3CR1 was isolated and further subcloned into pcDNA3.1zeo. Plasmid DNA was prepared using Plasmid Midi Kit (Qiagen). Using Superfect Transfection Reagent (Qiagen) according to the manufacturer's protocol the expression plasmid for hCX3CR1 was then introduced into human embryonic kidney suspension (HEKS) 293 cell line containing a vector for stable expression of a chimeric G-protein Gαqi5. A stable clone was generated utilizing zeocin (500 μg/mL) and hygromycin (100 μg/mL) selection. For further applications the cells were maintained in Dulbecco's modified Eagle's medium/Ham's nutrient mix F12 (DMEM/F12) containing pyridoxine and supplemented with 10% (v/v) fetal bovine serum, 2 mM L-glutamine, 100 U/ml penicillin and […] streptomycin, 250 μg/mL zeocin and 100 μg/mL hygromycin.
Cells are grown at 37° C. and 5% CO2 and harvested at 60-80% confluence in buffer containing 10 mM Tris-HCl pH 7.4, 5 mM EDTA, 0.1 mg/mL bacitracin. The cells are centrifuged at 300×g for 10 min and the pellet is resuspended in harvesting buffer (10 mM Tris-HCl, pH 7.4, 5 mM ethylenediaminetetra-aceticacid (EDTA) and 0.1 mg/mL bacitracin), pooled and homogenised using a Dounce homogeniser. The homogenate is centrifuged in 48000×g for 10 min and resuspended in harvesting buffer using Ultra-Turrax T8. Membrane aliquots are stored at −80° C. Protein concentration was determined in microtiter plates as described by Harrington (1990, Anal. Biochem. 186, 285-287).
Competition binding studies of [^125I]fraktalkine were performed in 2 mL 96-deep-well plates (Beckman, Germany) in a total volume of 1000 μL/well. Each well contained 10 pM [^125I]-fractalkine and membrane equivalent to receptor concentration of 1 pM in assay buffer (50 mM Hepes-KOH, pH 7.4, 10 mM MgCl2, 1 mM EDTA, 0.1% (w/v) gelatine). Ten concentrations (2 points/log unit) of the test compounds were pre-dissolved in DMSO and added to reach a final concentration of 1% (v/v) DMSO. The assay was initiated with the addition of membranes and incubated at 25° C. for 24 h. The reactions were stopped by rapid filtration through Whatman GF/B glass fiber filters pretreated with 0.3% polyethylimine and subsequent washing with ice-cold buffer (10 mM Hepes-KOH pH 7.4, 500 mM NaCl) using a Brandel receptor binding harvester. Scintillation cocktail was added and radioactivity was determined in a Packard 2500TR liquid scintillation counter. (Perkin Elmer, USA)

pKi: −log10 of the molar value.

`CC(C)C[C@H](CO)Nc1nc(SC(C)c2ccc(F)cn2)nc2nc(N)sc12` (mixture of isomers) [Example 1, (2R)-2-[(2-Amino-5-{[1-(5-fluoropyridin-2-yl)ethyl]thio}[1,3]thiazolo[4,5-d]pyrimidin-7-yl)amino]-4-methylpentan-1-ol]: the pKi (in general, the negative decadic logarithm of the Ki, by convention in mol/L) was 7.68.
As for `CC(C)C[C@H](CO)Nc1nc(S[C@@H](C)c2ccc(F)cn2)nc2nc(N)sc12` (single isomer, unassigned) [Example 3], the pKi is 8.19.
With `CC(C)C[C@H](CO)Nc1nc(S[C@@H](C)c2ccc(Cl)cn2)nc2nc(N)sc12` [Example 2, (2R)-2-[(2-Amino-5-{[(1S)-1-(5-chloropyridin-2-yl)ethyl]thio}[1,3]thiazolo[4,5-d]pyrimidin-7-yl)amino]-4-methylpentan-1-ol], the negative logarithm of the Ki (pKi) is 8.21.
For the compound `CC(C)C[C@H](CO)Nc1nc(S[C@@H](C)c2ncccc2F)nc2nc(N)sc12` [Example 5, (2R)-2-[(2-Amino-5-{[(1S)-1-(3-fluoropyridin-2-yl)ethyl]thio}[1,3]thiazolo[4,5-d]pyrimidin-7-yl)amino]-4-methylpentan-1-ol], the pKi was 7.64.
Compound `CCC[C@H](CO)N(C)c1nc(S[C@@H](C)c2ccc(Cl)nc2)nc2nc(N)sc12` [Example 6, (2R)-2-[(2-amino-5-{[(1S)-1-(6-chloropyridin-3-yl)ethyl]thio}[1,3]thiazolo[4,5-d]pyrimidin-7-yl)(methyl)amino]pentan-1-ol] gave a pKi of 6.69. This pKi is 0.95 log units lower than that of the compound before.
Turning to `CCC[C@H](CO)Nc1nc(S[C@@H](C)c2ccc(Cl)nc2)nc2nc(N)sc12` [Example 7, (2R)-2-[(2-Amino-5-{[(1S)-1-(6-chloropyridin-3-yl)ethyl]thio}[1,3]thiazolo[4,5-d]pyrimidin-7-yl)amino]pentan-1-ol], the negative logarithm of the Ki (pKi) was 6.83.
As to `CC(C)C[C@H](CO)Nc1nc(S[C@@H](C)c2cc(C#N)ccn2)nc2nc(N)sc12` [Example 8, 2-{(1S)-1-[(2-Amino-7-{[(1R)-1-(hydroxymethyl)-3-methylbutyl]amino}[1,3]thiazolo[4,5-d]pyrimidin-5-yl)thio]ethyl}isonicotinonitrile], the negative-log Ki (pKi) is 7.09.
With `CC(C)C[C@H](CO)Nc1nc(S[C@@H](C)c2ccncc2Cl)nc2nc(N)sc12` [Example 9b, (2R)-2-[(2-amino-5-{[(1S)-1-(3-chloropyridin-4-yl)ethyl]thio}[1,3]thiazolo[4,5-d]pyrimidin-7-yl)amino]-4-methylpentan-1-ol], the pKi is 7.46.
